Assay results from ChEMBL document CHEMBL5029155, “Design, Synthesis, and Biological Evaluation of Stable Colchicine-Binding Site Tubulin Inhibitors 6-Aryl-2-benzoyl-pyridines as Potential Anticancer Agents” (J Med Chem, 2021).

Key:
SK-BR-3 = experiment: Antiproliferative activity against human SK-BR-3 cells assessed as cell growth inhibition incubated for 72 hrs by MTS assay; assay type: functional, cell-based; details: SK-BR-3, 72 h
[1] = Metabolic stability in human liver microsomes assessed as intrinsic clearance in presence of NADPH regenerating system by UPLC-MS analysis; assay type: ADME, Microsome; details: read-out: CLH
[2] = Metabolic stability in human liver microsomes assessed as half life in presence of NADPH regenerating system by UPLC-MS analysis; assay type: ADME, Microsome; details: for t1/2: microsomes
M14 [3] = experiment: Antiproliferative activity against human M14 cells assessed as cell growth inhibition incubated for 72 hrs by MTS assay; assay type: functional, cell-based; details: M14, 72 h
[4] = Metabolic stability in mouse liver microsomes assessed as half life in presence of NADPH regenerating system by UPLC-MS analysis; assay type: ADME, Microsome; details: for t1/2: microsomes
MDA-MB-453 = experiment: Antiproliferative activity against human MDA-MB-453 cells assessed as cell growth inhibition incubated for 72 hrs by MTS assay; assay type: functional, cell-based; details: MDA-MB-453, 72 h
A-375 = experiment: Antiproliferative activity against human A-375 cells assessed as cell growth inhibition incubated for 72 hrs by MTS assay; assay type: functional, cell-based; details: A-375, 72 h
RPMI-7951 = experiment: Antiproliferative activity against human RPMI-7951 cells assessed as cell growth inhibition incubated for 72 hrs by MTS assay; assay type: functional, cell-based; details: RPMI-7951, 72 h
[5] = Metabolic stability in mouse liver microsomes assessed as intrinsic clearance in presence of NADPH regenerating system by UPLC-MS analysis; assay type: ADME, Microsome; details: read-out: CLH
MDA-MB-231 = experiment: Antiproliferative activity against human MDA-MB-231 cells assessed as cell growth inhibition incubated for 72 hrs by MTS assay; assay type: functional, cell-based; details: MDA-MB-231, 72 h
[6] = Induction of cell cycle arrest in human A375/TxR cells assessed as accumulation at G2/M phase at 10 nM measured for 24 hrs by PI staining based flow cytometry analysis
M14 [7] = experiment: Cytotoxicity against paclitaxel resistant human M14 cells measured after 72 hrs […]; assay type: functional, cell-based; details: M14, 72 h
[8] = Induction of apoptosis in human A375/TxR cells assessed as apoptotic cells at 10 nM measured for 24 hrs by annexin VFITC /PI staining based analysis (reference value: […]); assay type: functional
M14 [9] = experiment: Cytotoxicity against human M14 cells measured after 72 hrs […]; assay type: functional, cell-based; details: M14, 72 h

| Structure (SMILES) | IC50 (SK-BR-3) [nM] | CLint scaled [1] [mL/min/kg] | t1/2 [2] [min] | t1/2 [4] [min] | IC50 (MDA-MB-453) [nM] | IC50 (A-375) [nM] | CLint scaled [5] [mL/min/kg] | IC50 (MDA-MB-231) [nM] | half-life ([2]; liver microsomes) [min] | half-life ([4]; liver microsomes) [min] | IC50 (M14 [3]) [nM] | IC50 (RPMI-7951) [nM] | Activity [6] [%] | IC50 (M14 [7]) [nM] | Activity [8] [%] | IC50 (M14 [9]) [nM] |
| --- | --- | --- | --- | --- | --- | --- | --- | --- | --- | --- | --- | --- | --- | --- | --- | --- |
| CCc1c(OC)cc(C(=O)c2cccc(-c3ccc(C)c(O)c3)n2)cc1OC | 10.1 | 22.9 | 54.6 | 211.8 | 8.7 | 15.1 | 16.2 | 37.4 |  |  | 24.8 | 13.9 |  |  |  |  |
| COc1cc(C(=O)c2cc(OC)c(OC)c(OC)c2)nc(-c2ccc(C)c(O)c2)c1 | 16.9 | 29.2 | 42.6 | 45 | 14.7 | 22.2 | 76.7 | 17.6 |  |  | 17.5 | 17.2 |  |  |  |  |
| COc1cc(C(=O)c2cncc(-c3cccc4[nH]ncc34)n2)cc(OC)c1OC | 46.1 |  |  |  | 51.5 | 20.8 |  | 38 |  |  | 21.9 | 23.8 |  |  |  |  |
| COc1cc(C(=O)c2c[nH]c(-c3ccc(C)c(O)c3)n2)cc(OC)c1OC | 57.6 | 8.8 | 142.2 | 84.6 | 23.2 | 41.2 | 40.6 | 24.3 |  |  | 32.4 | 78.4 |  |  |  |  |
| COc1cc(C(=O)c2cccc(-c3ccc(N(C)C)cc3)n2)cc(OC)c1OC | 54.5 |  |  |  | 33.7 | 53.8 |  | 42.7 |  |  | 63.5 | 44 |  |  |  |  |
| COc1cc(C(=O)c2cncc(-c3ccc(C)cc3)n2)cc(OC)c1OC | 7.1 |  | 20.4 | 42.6 | 6.7 | 2.5 | 65.8 | 4.8 |  |  | 1.7 | 2.2 |  |  |  |  |
| COc1cc2c(c(OC)c1OC)-c1ccc(OC)c(=O)cc1[C@@H](NC(C)=O)CC2 [COLCHICINE] |  |  |  |  |  |  |  |  |  |  |  |  |  | > 1000 |  |  |
| COc1cc(C(=O)c2cc(F)cc(-c3ccc(C(F)F)cc3)c2)cc(OC)c1OC | 52.3 |  |  |  | 89.7 | 80.9 |  | 45 |  |  | 56.3 | 40.8 |  |  |  |  |
| COc1cc(C(=O)c2nc(-c3ccc(C)c(O)c3)[nH]c2Br)cc(OC)c1OC | 119 |  |  |  | 68.1 | 85 |  | 70.9 |  |  | 76.3 | 133 |  |  |  |  |
| COc1cc(C(=O)c2ccnc(-c3c[nH]c4ccccc34)n2)cc(OC)c1OC | 17.1 |  |  |  | 14.2 | 36.1 |  | 31.6 |  |  | 29.1 | 29.7 |  |  |  |  |
| COc1cc(-n2ccc3ccc(-c4ccc(C)cc4)nc32)cc(OC)c1OC | 82.9 |  |  |  | 139 | 174 |  | 515 |  |  | 76.5 | 205 |  |  |  |  |
| COc1cc(-c2n[nH]c3ccc(-c4ccc(C)c(O)c4)nc23)cc(OC)c1OC | 65.6 | 6.1 | 205.2 | 167.4 | 54.9 | 21.1 | 20.5 | 22.3 |  |  | 18.5 | 22.9 |  |  |  |  |
| CC(=O)O[C@H]1C(=O)[C@@]2(C)[C@H]([C@H](OC(=O)c3ccccc3)[C@]3(O)C[C@H](OC(=O)[C@H](O)[C@@H](NC(=O)c4ccccc4)c4ccccc4)C(C)=C1C3(C)C)[C@]1(OC(C)=O)CO[C@@H]1C[C@@H]2O [PACLITAXEL] |  |  |  |  |  |  |  |  |  |  |  |  |  | 186 | 11.8 | 0.5 |
| COc1cc(C(=O)c2cncc(-c3c[nH]c4ccccc34)n2)cc(OC)c1OC | 35 |  |  |  | 13.2 | 16.7 |  | 12.4 |  |  | 19.2 | 14.4 |  |  |  |  |
| COc1cc(C(=O)c2cccc(-c3ccc(C)c(NC(C)=O)c3)n2)cc(OC)c1OC | 15.2 |  |  |  | 19.3 | 28.8 |  | 33.4 |  |  | 12.6 | 21.2 |  |  |  |  |
| COc1cc(C(=O)c2cncc(-c3ccc(C)c(O)c3)n2)cc(OC)c1OC | 26.7 | 26.6 | 46.8 | 119.4 | 4 | 5.9 | 28.7 | 8 |  |  | 5.2 | 5.2 |  |  |  |  |
| COc1cc(C(=O)c2ccnc(-c3ccc(C)c(O)c3)n2)cc(OC)c1OC | 12 | 142 | 9 | 78.6 | 2.8 | 6.8 | 43.8 | 15.1 |  |  | 5.4 | 7.2 |  |  |  |  |
| COc1cc(C(=O)c2nc(-c3ccc(C)c(O)c3)[nH]c2C)cc(OC)c1OC | 25.6 |  |  |  | 28.1 | 52.3 |  | 112 |  |  | 46.6 | 56 |  |  |  |  |

Further molecules by falling IC50 (SK-BR-3), results first:

| IC50 (SK-BR-3) [nM] | CLint scaled [1] [mL/min/kg] | t1/2 [2] [min] | t1/2 [4] [min] | IC50 (MDA-MB-453) [nM] | IC50 (A-375) [nM] | CLint scaled [5] [mL/min/kg] | IC50 (MDA-MB-231) [nM] | half-life ([2]; liver microsomes) [min] | half-life ([4]; liver microsomes) [min] | Structure (SMILES) | IC50 (M14 [3]) [nM] | IC50 (RPMI-7951) [nM] | Activity [6] [%] | IC50 (M14 [7]) [nM] | Activity [8] [%] | IC50 (M14 [9]) [nM] |
| --- | --- | --- | --- | --- | --- | --- | --- | --- | --- | --- | --- | --- | --- | --- | --- | --- |
| 5.5 | 28.8 | 43.2 | 4.2 | 9.7 | 4.3 | 824 | 16 |  |  | COc1cc(C(=O)c2cc(C)cc(-c3ccc(C)cc3)n2)cc(OC)c1OC | 4.4 | 6.4 |  |  |  |  |
| 5.5 | 83.6 |  |  | 5.9 | 5 | 818 | 5.3 | 15 | 4.2 | COc1cc(C(=O)c2cccc(-c3ccc4c(c3)CCN4)n2)cc(OC)c1OC | 5.6 | 5.9 |  |  |  |  |
| 4.5 | 45 | 27.6 | > 240 | 5 | 7.9 | 13 | 11.1 |  |  | COc1cc(C(=O)c2cc(OC)c(OC)c(OC)c2)nc(-c2ccc(C)cc2)c1 | 7.7 | 6.8 |  |  |  |  |
| 4.2 | 136 | 9 | 8.4 | 2.1 | 3.7 | 397 | 6.6 |  |  | COCCOc1c(OC)cc(C(=O)c2cccc(-c3ccc(C)cc3)n2)cc1OC | 2.4 | 5 |  |  |  |  |
| 4.2 | 317 | 4.2 | 3 | 3.9 | 2.4 | 1050 | 5.3 |  |  | COc1cc(C(=O)c2cccc(-c3ccc(C)cc3)n2)cc(OC)c1OC | 3.1 | 3.5 |  |  |  |  |
| 4.1 | 116 | 10.8 |  | 1.1 | 2 | 57.3 | 3.3 |  |  | COc1cc(C(=O)c2cccc(-c3ccc(C)c(O)c3)n2)cc(OC)c1OC | 2 | 2.8 | 60 |  |  |  |
| 3.8 | 240 | 5.4 | 12.6 | 4 | 3 | 271 | 4.7 |  |  | COc1cc(C(=O)c2cccc(-c3ccc(C(F)F)cc3)n2)cc(OC)c1OC | 4.7 | 2.8 |  |  |  |  |
| 3.5 |  |  |  | 5.5 | 8.8 |  | 5.5 |  |  | COc1cc(C(=O)c2cc(C)cc(-c3ccc(C)c(N)c3)n2)cc(OC)c1OC | 5.9 | 6.3 |  |  |  |  |
| 3.2 | 172 | 7.2 | 1.8 | 3.2 | 3.6 | 1900 | 5.3 |  |  | COc1cc(C(=O)c2cccc(-c3ccc(C)cc3)n2)cc2c1OCCO2 | 4.5 | 3.1 |  |  |  |  |
| 2.4 | 38.1 | 33 | 90 | 4.2 | 2.6 | 38.2 | 4.3 |  |  | COc1cc(C(=O)c2nc(-c3ccc(C(F)F)cc3)ccc2F)cc(OC)c1OC | 3.2 | 2.1 |  |  |  |  |
| 1.9 | 133 | 9.6 | 12.6 | 2.5 | 3.7 | 273 | 2.3 |  |  | COc1cc(C(=O)c2nc(-c3ccc(C)cc3)ccc2F)cc(OC)c1OC | 2.6 | 3.4 |  |  |  |  |
